Activity calls are given as the source filed them. No cut-off for these calls is given here.
Legend:
Rattus norvegicus [1] = experiment: Intrinsic sympathomimetic activity (ISA) measured as max. increase in heart rate over 60 min in reserpinized normotensive anesthetized rats at 1000 ug/kg iv; assay type: functional; set-up: unit not given here
[2] = target: Beta-1 adrenergic receptor (Cavia porcellus, UniProt B0FL73); experiment: In vitro inhibitory activity against beta-1 adrenergic receptor was measured by the inhibition of the positive chronotropic effect of isoproterenolin in isolated guinea pig atria.; details: read-out: pA2 (converted)
[3] = Dissociation constant (pKa); assay type: physicochemical
[4] = Partition coefficient (logD7.4); assay type: physicochemical; details: octanol/water, pH 7.4
Rattus norvegicus [5] = experiment: Intrinsic sympathomimetic activity (ISA) in the reserpinized normotensive anesthetized rats following intravenous administration at 1000 ug/kg; assay type: functional
Rattus norvegicus [6] = experiment: Effective dose was evaluated following intravenous administration in reserpinized normotensive anesthetized rats; assay type: functional
[7] = target: Beta-2 adrenergic receptor (Cavia porcellus) (UniProt Q8K4Z4)
Rattus norvegicus [8] = experiment: Intrinsic sympathomimetic activity (ISA) measured as max increase in heart rate over 60 min in the reserpinized normotensive anesthetized rats at 1000 ug/kg iv; assay type: functional

Sequence of Beta-2 adrenergic receptor (Cavia porcellus) (Q8K4Z4 whole entry, looked up): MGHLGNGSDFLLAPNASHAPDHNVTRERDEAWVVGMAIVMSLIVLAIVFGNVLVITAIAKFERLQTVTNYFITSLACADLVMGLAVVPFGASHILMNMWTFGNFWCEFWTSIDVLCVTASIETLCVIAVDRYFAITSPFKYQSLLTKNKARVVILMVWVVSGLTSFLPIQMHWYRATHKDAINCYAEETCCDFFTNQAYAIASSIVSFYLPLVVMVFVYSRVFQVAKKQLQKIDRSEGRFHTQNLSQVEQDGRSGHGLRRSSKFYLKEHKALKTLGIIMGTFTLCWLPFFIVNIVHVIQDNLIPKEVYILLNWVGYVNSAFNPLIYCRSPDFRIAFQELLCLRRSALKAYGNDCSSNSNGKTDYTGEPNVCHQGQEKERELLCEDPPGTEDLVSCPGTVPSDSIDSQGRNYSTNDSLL
Sequence of Beta-1 adrenergic receptor (B0FL73 whole entry): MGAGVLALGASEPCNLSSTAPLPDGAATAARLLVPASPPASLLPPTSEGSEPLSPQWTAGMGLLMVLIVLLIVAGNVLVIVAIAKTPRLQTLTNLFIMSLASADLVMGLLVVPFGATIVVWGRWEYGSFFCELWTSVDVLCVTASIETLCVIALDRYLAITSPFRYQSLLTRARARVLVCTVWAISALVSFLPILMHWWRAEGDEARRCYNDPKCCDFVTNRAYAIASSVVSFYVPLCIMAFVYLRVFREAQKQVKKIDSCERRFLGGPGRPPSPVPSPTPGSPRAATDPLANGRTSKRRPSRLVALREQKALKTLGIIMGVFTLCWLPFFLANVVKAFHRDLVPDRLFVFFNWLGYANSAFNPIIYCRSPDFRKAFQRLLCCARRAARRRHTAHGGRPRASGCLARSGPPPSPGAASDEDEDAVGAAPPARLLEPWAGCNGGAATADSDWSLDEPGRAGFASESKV

Row | SMILES | Max increase (Rattus norvegicus [1]) | pKa [3] | logD [4] | further results
1 | CC(C)NCC(O)COc1ccc(Cc2nc(Br)c[nH]2)cc1 (stereo not drawn) | 7 | 3.75 | 0.204 | Kb [2]: 3.16 nM
2 | CC(C)NCC(O)COc1ccc(-c2ncc[nH]2)cc1 (stereo not drawn) | 53 | 5.65 | -0.569 | 
3 | CCOCc1c[nH]c(-c2ccc(OCC(O)CNCCc3ccc(OC)c(OC)c3)cc2)n1 (stereo not drawn) | 27 | 5.25 | 0.312 | 
4 | COc1ccc(CCNCC(O)COc2ccc(-c3nccn3C)cc2)cc1OC.Cl.Cl (stereo not drawn) | 47 | 6.7 | 0.881 | 
5 | COc1ccc(CCNCC(O)COc2ccc(-c3nc(C)c(Cl)[nH]3)cc2)cc1OC (stereo not drawn) |  | 3.62 | 1.88 | Max increase (Rattus norvegicus [5]): 19
6 | COc1ccc(CCNCC(O)COc2ccc(-c3nc(C)c(C)[nH]3)cc2)cc1OC (stereo not drawn) | 19 | 6.72 | 1.02 | 
7 | CCCNCC(O)COc1ccc(-c2nc(-c3cccs3)c[nH]2)cc1 (stereo not drawn) |  | 4.79 | 1.41 | 
8 | COc1ccc(CCNCC(O)COc2ccc(-c3nc(Br)c[nH]3)cc2Cl)cc1OC (stereo not drawn) | 48 | 3.3 | 2.31 | 
9 | COc1ccc(CCNCC(O)COc2ccc(COCc3ncc[nH]3)cc2)cc1OC (stereo not drawn) | 2 | 5.5 | 0.633 | 
10 | COc1ccc(CCNCC(O)COc2ccc(-c3nc(Cl)c[nH]3)cc2)cc1OC (stereo not drawn) | 42 | 3.48 | 1.61 | 
11 | COc1ccc(CCNCC(O)COc2ccc(-c3nc(-c4cccs4)c[nH]3)cc2)cc1OC (stereo not drawn) |  |  |  | ED50 (Rattus norvegicus [6]): 0.0479 mg/kg
12 | COc1ccc(CCNCC(O)COc2ccc(-c3nc(CO)c[nH]3)cc2)cc1OC (stereo not drawn) |  | 5.55 | 0 | 
13 | COc1ccc(CCNC[C@H](O)COc2ccc(-c3nc(C(C)=O)c[nH]3)cc2)cc1OC |  | 3.6 | 0.694 | ED50 (Rattus norvegicus [6]): 0.0074 mg/kg
14 | COCCc1c[nH]c(-c2ccc(OCC(O)CNCCc3ccc(OC)c(OC)c3)cc2)n1 (stereo not drawn) | 75 | 5.9 | 1.32 | 
15 | COCc1c[nH]c(-c2ccc(OCC(O)CNCCc3ccc(OC)c(OC)c3)cc2)n1 (stereo not drawn) | 38 | 5.64 | 0.799 | pA2 [7]: Active
16 | COc1ccc(CCNCC(O)COc2ccc(CCc3nc(-c4cccs4)c[nH]3)cc2)cc1OC (stereo not drawn) | 0 | 5.45 | 1.53 | 
17 | COc1ccc(CCNCC(O)COc2ccc(-c3nc(-c4cccs4)c[nH]3)cc2Cl)cc1OC (stereo not drawn) | 19 | 4.02 | 2.34 | 
18 | COc1ccc(CCNCC(O)COc2ccc(Cc3nc(-c4cccs4)c[nH]3)cc2)cc1OC (stereo not drawn) | 3 | 4.99 | 1.58 | 
19 | COc1ccc(CCNCC(O)COc2ccc(CCc3nc(Br)c[nH]3)cc2)cc1OC (stereo not drawn) |  | 3.65 | 1 | 
20 | COCc1[nH]c(-c2ccc(OCC(O)CNCCc3ccc(OC)c(OC)c3)cc2)nc1C (stereo not drawn) |  | 4.92 | 0.839 | 
21 | COc1ccc(CCNC[C@H](O)COc2ccc(-c3nc(C(C)(C)C)c[nH]3)cc2)cc1OC |  | 6.42 | 2.2 | Max increase (Rattus norvegicus [8]): 21
22 | COc1ccc(CCNCC(O)COc2ccc(OCc3ncc[nH]3)cc2)cc1OC (stereo not drawn) |  | 5.2 | 0.663 | 
23 | COc1ccc(CCNCC(O)COc2ccc(-c3nc(C(C)C)c[nH]3)cc2)cc1OC (stereo not drawn) | 24 | 6.78 | 1.79 | 
24 | COc1ccc(CCNC[C@H](O)COc2ccc(Cc3nc(C(C)=O)c[nH]3)cc2)cc1OC | 0 | 3.95 | 0.301 | 

Row | SMILES | Max increase (Rattus norvegicus [1]) | pKa [3] | logD [4] | further results
25 | COc1ccc(CCNCC(O)COc2ccc(-c3nc(CN4CCOCC4)c[nH]3)cc2)cc1OC (stereo not drawn) | 30 | 3.54 | 0.215 | 
26 | COc1ccc(CCNCC(O)COc2ccc(-c3nc(Br)c(C)[nH]3)cc2)cc1OC (stereo not drawn) |  | 5.8 | 1.98 | Max increase (Rattus norvegicus [5]): 23
27 | CCOCCNC[C@H](O)COc1ccc(-c2nc(-c3cccs3)c[nH]2)cc1 |  | 4.6 | 1.86 | ED50 (Rattus norvegicus [6]): 0.0784 mg/kg
28 | COc1ccc(CCNCC(O)COc2ccc(-c3nc(Br)c[nH]3)cc2)cc1OC (stereo not drawn) |  | 3.65 | 1.24 | ED50 (Rattus norvegicus [6]): 0.0064 mg/kg
29 | OC(CNCCc1ccncc1)COc1ccc(-c2nc(-c3cccs3)c[nH]2)cc1 (stereo not drawn) |  | 3.8 | 1.9 | ED50 (Rattus norvegicus [6]): 0.0654 mg/kg
30 | COc1ccc(CCNCC(O)COc2ccc(-c3nc(C)c[nH]3)cc2Br)cc1OC (stereo not drawn) |  | 5.7 | 1.6 | 
31 | N#Cc1ccccc1OCC(O)CNCCNC(=O)Nc1ccccc1.O (stereo not drawn) |  |  |  | ED50 (Rattus norvegicus [6]): 0.0029 mg/kg
32 | Cc1c[nH]c(Cc2ccc(OCC(O)CNC(C)(C)C)cc2)n1 (stereo not drawn) |  | 6.93 | -0.638 | 
33 | COc1ccc(CCNCC(O)COc2ccc(-c3nc(C(N)=O)c[nH]3)cc2)cc1OC (stereo not drawn) | 47 | 3.6 | 0.279 | 
34 | CCOC(=O)c1c[nH]c(-c2ccc(OCC(O)CNCCc3ccc(OC)c(OC)c3)cc2)n1 (stereo not drawn) | 60 | 3.8 | 1.41 | 
35 | COc1ccc(CCNC[C@H](O)COc2ccc(-c3nc(-c4cccs4)c[nH]3)cc2)cc1OC.Cl.Cl | 19 |  |  | 
36 | CC(C)NCC(O)COc1ccc(-c2nc(C(C)C)c[nH]2)cc1 (stereo not drawn) |  | 6.32 | 0.952 | 
37 | COc1ccc(CCNCC(O)COc2ccc(-c3ncco3)cc2)cc1OC (stereo not drawn) | 19 | 8.4 | 1.6 | 
38 | COc1ccc(CCNCC(O)COc2ccc(-c3nc(-c4cccs4)c[nH]3)cc2C)cc1OC (stereo not drawn) | 21 | 4.55 | 2.76 | 
39 | COc1ccc(CCNCC(O)COc2ccc(-c3nc(C(C)=O)c(C)[nH]3)cc2)cc1OC (stereo not drawn) | 24 | 4 | 1.28 | 
40 | COc1ccc(CCNCC(O)COc2ccc(Cc3nc(C)c[nH]3)cc2)cc1OC (stereo not drawn) | 0 | 7.01 | 0.301 | 
41 | CC(C)NCC(O)COc1ccc(-c2nc(-c3cccs3)c[nH]2)cc1 (stereo not drawn) |  | 4.9 | 1.18 | 
42 | COc1ccc(CCNCC(O)COc2ccc(-c3nccs3)cc2)cc1OC (stereo not drawn) | 70 |  | 0.505 | 
43 | CCCCNC(=O)NCCNCC(O)COc1ccc(-c2nc(C)c[nH]2)cc1 (stereo not drawn) |  | 3.6 | 0.699 | 
44 | CCOCCNCC(O)COc1ccc(-c2nc(-c3cccs3)c[nH]2)cc1 (stereo not drawn) |  | 4.5 | 1.78 | 
45 | COc1ccc(CCNCC(O)COc2ccc(-c3nc(C)c[nH]3)cc2OC)cc1OC (stereo not drawn) |  | 6.35 | 0.968 | 
46 | O=C(NCCNCC(O)COc1ccc(-c2ncc[nH]2)cc1)Nc1ccccc1 (stereo not drawn) |  | 5.75 | 0.778 | 
47 | COc1ccc(CCNCC(O)COc2ccc(-c3nc(C(C)(C)C)c[nH]3)cc2)cc1OC (stereo not drawn) | 48 | 6.2 | 2.09 | 

— ChEMBL document CHEMBL1123279, “Beta 1-selective adrenoceptor antagonists: examples of the 2-[4-[3-(substituted amino)-2-hydroxypropoxy]phenyl]imidazole class. 2” (J Med Chem, 1986)
